# Laboratory results: patent US20220339143A1, “TAK-925 FOR USE IN TREATING NARCOLEPSY” (Takeda Pharmaceutical Company Limited, priority 2019, published 2022)
# Experiments:
# [1] = Plasma concentrations in healthy subjects (Cohort 4); format: in vivo; details: human, intravenous, 112 mg
# Experimental: Pharmacokinetics: Concentrations of Compound A in plasma, and CSF, and pharmacokinetics parameters.
# Following a single 9-hour IV infusion of 112 mg to healthy adult subjects in Cohort 4, Compound A plasma concentration-time profile was consistent with that observed in Cohort 1. At 6 hours after the start of infusion, mean ratio CSF/plasma concentration of Compound A was estimated to be about 2.8%.
# [2] = tested on: patients with NT1; assay: Number of cataplexy episodes (self-recorded sleep diary), multiple dose (Cohorts B1, B2); format: in vivo, human; details: for Number of Cataplexy Episodes, Median / Number of Cataplexy Episodes, Mean: Treatment Period (Day 1-7 [until 24 hours after start of infusion])
# Experimental: (§1) The purpose of the study was to evaluate the safety, tolerability, pharmacokinetics and pharmacodynamics of Compound A after multiple IV administration in patients with NT1. NT1 patients were evaluated in Cohort B1 and B2 (Table 19). Compound A or placebo were administered via IV infusion over 9 hours once daily for 7 days. A total of 13 patients with NT1 were treated with Compound A or placebo (4, 4, and 5 subjects in the placebo, Compound A 11 mg, and Compound A 44 mg groups, respectively). In this part, potential efficacy of Compound A was evaluated with MWT, ESS, KSS, night-time PSG (NPSG), cataplexy frequency assessment, and PGI-C as an exploratory PD assessment.
# (§2) An overview of study schedule and PD testing in NT1 Patients is illustrated in FIG. 11. After screening, patients eligible for these parts had to discontinue any medication for narcolepsy including medications used for EDS or cataplexy. The medications had to be stopped for a minimum of 7 days or at least 5 half-lives of each medication, whichever was longer, before the first day of dosing (Day 1). As for a subject having possibility of getting injured due to severe cataplexy, the subject might have been confined to the site before Day −2 at a discretion of the investigator. In all cohorts of these parts, subjects underwent NPSG on Day −2 and baseline MWT sessions 4 times on Day −1 (at around 10:00, 12:00, 14:00, and 16:00). Study drug dosing via IV infusion was started at around 08:00. MWT was conducted on Day 1 at around 10:00, 12:00, 14:00, and 16:00. Subjects were allowed to take a nap on the days with no MWT assessment. At night of Day 6, the subjects underwent NPSG once again to evaluate the effect of multiple daytime dosing on night-time sleep structure. On Day 7, the subjects underwent MWT at the same hours as on Day −1. Cataplexy was to be evaluated by using the self-recorded sleep diary. The subjects were discharged from the study site on Day 8.
# [3] = tested on: patients with narcolepsy type 1 (NT1); assay: Number of cataplexy episodes (daily diary), single dose (Cohorts 5, 6, 7); format: in vivo, human; details: for Number of Events of Cataplexy per Week in one particular patient: cohort 7
# Source text: Assessment of cataplexy and other sleep manifestations using a daily diary to collect episodes of cataplexy and sleep symptoms associated with NT1.
# [4] = tested on: healthy adults, healthy elderly subjects; assay: Safety/tolerability of a single dose given as 9 hour continuous IV infusion in healthy adults and healthy elderly subjects; format: in vivo, human
# Experimental: This study investigates (i) the safety and tolerability of Compound A (methyl (2R,3S)-3-((methylsulfonyl)amino)-2-(((cis-4-phenylcyclohexyl)oxy)methyl)piperidine-1-carboxylate) when a single dose given as a 9 hour continuous IV infusion is administered to healthy adults, healthy elderly subjects and patients with narcolepsy type 1 (NT1); (ii) the pharmacokinetics of Compound A when a single dose given as a 9 hour continuous IV infusion is administered to healthy adults, healthy elderly subjects and patients with narcolepsy type 1; and (iii) the pharmacodynamics (PD) effects of Compound A, primarily by evaluation of the sleep latency on MWT when a single dose given as a 9 hour continuous IV infusion is administered to patients with narcolepsy type 1.
# Safety and tolerability: adverse events, vital signs, 12-lead ECG and clinical laboratory tests (hematological tests, blood biochemical tests and urinalysis)
# To investigate the safety of Compound A, the treatment-emergent adverse events (TEAEs) for healthy subjects and subjects with narcolepsy type 1 (NT1 patients) treated with Compound A were evaluated. A summary of the TEAEs for healthy subjects from cohorts 1 and 2 is shown in FIG. 3, for healthy subjects from cohorts S1, S2, 3, and 4 is shown in FIG. 4, and for NT1 patients is shown in FIG. 5.
# [5] = tested on: patients with NT1; assay: Sleep latency in MWT, multiple dose (Cohorts B1, B2); format: in vivo, human
# Experimental: as §1, §2
# The MWT is a validated objective measure that evaluates a person's ability to remain awake under soporific conditions for a defined period of time. As there is no biological measure of wakefulness, this was measured indirectly by the inability or delayed tendency to fall asleep. This tendency to fall asleep was measured via EEG-derived sleep latency in MWT.
# On Day −1, Day 1 and Day 7, 40-minute session (1 session) of MWTs was performed 4 times (approximately at 10:00, 12:00, 14:00, and 16:00) per day. Sleep latency of each session was recorded. Subjects were required to stay awake during an interval between sessions.
smiles,measurement,setting,value
"COC(=O)N1CCC[C@H](NS(C)(=O)=O)[C@@H]1CO[C@H]1CC[C@@H](c2ccccc2)CC1 [Compound A, methyl (2R,3S)-3-((methylsulfonyl)amino)-2-(((cis-4-phenylcyclohexyl)oxy)methyl)piperidine-1-carboxylate]",concentration at 0.5 h,[1]; Mean,119 ng/mL
same,concentration at 0.5 h,[1]; Median,116 ng/mL
same,concentration at 1 h,[1]; Mean,162 ng/mL
same,concentration at 1 h,[1]; Median,156 ng/mL
same,concentration at 1.5 h,[1]; Mean,193 ng/mL
same,concentration at 1.5 h,[1]; Median,194 ng/mL
same,concentration at 2 h,[1]; Mean,186 ng/mL
same,concentration at 2 h,[1]; Median,183 ng/mL
same,concentration at 3 h,[1]; Mean,216 ng/mL
same,concentration at 3 h,[1]; Median,218 ng/mL
same,concentration at 4 h,[1]; Mean,234 ng/mL
same,concentration at 4 h,[1]; Median,224 ng/mL
same,concentration at 6 h,[1]; Mean,234 ng/mL
same,concentration at 6 h,[1]; Median,227 ng/mL
same,concentration at 8 h,[1]; Mean,177 ng/mL
same,concentration at 8 h,[1]; Median,168 ng/mL
same,concentration at 9 h,[1]; Mean,184 ng/mL
same,concentration at 9 h,[1]; Median,182 ng/mL
same,"Number of Cataplexy Episodes (Time-matched), Median","[2]; 11 mg, Day 1-7 (after infusion time up to 24 hours after start of infusion)",1.0
same,"Number of Cataplexy Episodes (Time-matched), Mean","[2]; 11 mg, Day 1-7 (after infusion time up to 24 hours after start of infusion), time-matched baseline 5.8",3.0
same,"Number of Cataplexy Episodes (Time-matched), Median","[2]; 11 mg, Day 1-7 (during infusion time)",0.0
same,"Number of Cataplexy Episodes (Time-matched), Mean","[2]; 11 mg, Day 1-7 (during infusion time), time-matched baseline 5.8",0
same,"Number of Cataplexy Episodes (Time-matched), Mean","[2]; 11 mg, Day 1-7 (during infusion time), time-matched baseline 5.8, listed as Cmpd A",0.0
same,"Number of Cataplexy Episodes, Median",[2]; 11 mg,1.0
same,"Number of Cataplexy Episodes, Mean","[2]; 11 mg, baseline 11.5",3.0
same,"Number of Cataplexy Episodes (Time-matched), Median","[2]; 44 mg, Day 1-7 (after infusion time up to 24 hours after start of infusion)",1.0
same,"Number of Cataplexy Episodes (Time-matched), Mean","[2]; 44 mg, Day 1-7 (after infusion time up to 24 hours after start of infusion), time-matched baseline 0.4",1.4
same,"Number of Cataplexy Episodes (Time-matched), Median","[2]; 44 mg, Day 1-7 (during infusion time)",0.0
same,"Number of Cataplexy Episodes (Time-matched), Mean","[2]; 44 mg, Day 1-7 (during infusion time), time-matched baseline 3.2",0
same,"Number of Cataplexy Episodes (Time-matched), Mean","[2]; 44 mg, Day 1-7 (during infusion time), time-matched baseline 3.2, listed as Cmpd A",0.0
same,"Number of Cataplexy Episodes, Median",[2]; 44 mg,1.0
same,"Number of Cataplexy Episodes, Mean","[2]; 44 mg, baseline 3.6",1.4
same,Subjects without any Events (cataplexy),[3]; 5 mg (N = 6),3 (50.0) N (%)
same,"Number of Times of a Cataplexy Episode, Mean (SD)","[3]; 5 mg, After End of Infusion",10.2 (23.45)
same,"Number of Times of a Cataplexy Episode, Median","[3]; 5 mg, After End of Infusion",0.5
same,"Number of Times of a Cataplexy Episode, Mean (SD)","[3]; 5 mg, During Infusion",0.0 (0.00)
same,"Number of Times of a Cataplexy Episode, Median","[3]; 5 mg, During Infusion",0.0
same,Subjects without any Events (cataplexy),[3]; 11.2 mg (N = 4),3 (75.0) N (%)
same,"Number of Times of a Cataplexy Episode, Mean (SD)","[3]; 11.2 mg, After End of Infusion",0.0 (0.00)
same,"Number of Times of a Cataplexy Episode, Median","[3]; 11.2 mg, After End of Infusion",0.0
same,"Number of Times of a Cataplexy Episode, Mean (SD)","[3]; 11.2 mg, During Infusion",0.8 (1.50)
same,"Number of Times of a Cataplexy Episode, Median","[3]; 11.2 mg, During Infusion",0.0
same,Subjects without any Events (cataplexy),[3]; 44.8 mg (N = 4),3 (75.0) N (%)
same,"Number of Times of a Cataplexy Episode, Mean (SD)","[3]; 44.8 mg, After End of Infusion",0.8 (1.50)
same,"Number of Times of a Cataplexy Episode, Median","[3]; 44.8 mg, After End of Infusion",0.0
same,"Number of Times of a Cataplexy Episode, Mean (SD)","[3]; 44.8 mg, During Infusion",0.0 (0.00)
same,"Number of Times of a Cataplexy Episode, Median","[3]; 44.8 mg, During Infusion",0.0
same,Number of Events of Cataplexy per Week in one particular patient,"[3]; During Cmpd A infusion (baseline 808, during placebo infusion 83)",0
same,Number of Events of Cataplexy per Week in one particular patient,[3]; Post Cmpd A infusion,58
same,frequency of cataplexy compared to baseline frequency in one patient of cohort 7,[3]; during the infusion of Compound A,remarkably improved
same,BP and pulse rate increases vs Compound A concentration,"[4]; human, in vivo",Trend for the observed BP and pulse rate increases in healthy subjects and Compound A concentration was observed
same,commonly observed AEs,"[4]; human, in vivo, iv",BP increased and heart rate increased
same,"adverse events (AEs), severity and seriousness","[4]; single dose, 9 hour IV infusion, Compound A groups (healthy subjects and NT1 patients)",all of the AEs were mild (except 1 moderate influenza) and no serious AEs were observed
same,mean sleep latency in MWT,"[5]; 11 mg, Day 1 (placebo 1.31)",37.16 min
same,mean change from baseline in average sleep latency in MWT,"[5]; 11 mg, Day 1 (placebo −0.66)",35.13 min
same,mean sleep latency in MWT,"[5]; 11 mg, Day 7 (placebo 1.59)",23.03 min
same,mean change from baseline in average sleep latency in MWT,"[5]; 11 mg, Day 7 (placebo −0.38)",21.00 min
same,maximum sleep latency achieved in MWT,"[5]; 11 mg, at 4 hours on Day 1",40 min
same,mean sleep latency in MWT,"[5]; 44 mg, Day 1 (placebo 1.31)",40.00 min
same,mean change from baseline in average sleep latency in MWT,"[5]; 44 mg, Day 1 (placebo −0.66)",34.19 min
same,mean sleep latency in MWT,"[5]; 44 mg, Day 7 (placebo 1.59)",40.00 min
same,mean change from baseline in average sleep latency in MWT,"[5]; 44 mg, Day 7 (placebo −0.38)",34.78 min
same,maximum sleep latency achieved in MWT,"[5]; 44 mg, all time points on both Day 1 and Day 7",40 min
